Source: patent US10993988B2, “Anthelmintic combinations and methods of use thereof” (BOEHRINGER INGELHEIM ANIMAL HEALTH USA INC., priority 2015, dated 2021)
Read-outs that look alike come from different tables or passages of the source.

Key:
MP3 strain of D. immitis = details: cited from earlier work
[1] = tested on: JYD-34 isolate of Dirofilaria immitis; assay: Efficacy of ivermectin and emodepside, separately and in combination, against induced Dirofilaria immitis infection in dogs (live worm counts at necropsy); details: in vivo, po
[2] = normal prophylaxis regimens, recent reports

Compound: CO[C@H]1C[C@H](O[C@@H]2/C(C)=C/C[C@@H]3C[C@@H](C[C@]4(CC[C@H](C)[C@@H](C5CCCCC5)O4)O3)OC(=O)[C@@H]3C=C(C)/C(=N/O)[C@H]4OC/C(=C\C=C\[C@@H]2C)[C@]43O)O[C@@H](C)[C@@H]1O [selamectin]
- Efficacy against MP3 strain (MP3 strain of D. immitis; [2]): incomplete efficacy

Compound: milbemycin oxime
- Efficacy against MP3 strain (MP3 strain of D. immitis; [2]): incomplete efficacy

Compound: CC[C@H](C)[C@H]1O[C@]2(CC[C@@H]1C)C[C@@H]1C[C@@H](C/C=C(\C)[C@@H](O[C@H]3C[C@H](OC)[C@@H](O[C@H]4C[C@H](OC)[C@@H](O)[C@H](C)O4)[C@H](C)O3)[C@@H](C)/C=C/C=C3\CO[C@@H]4[C@H](O)C(C)=C[C@@H](C(=O)O1)[C@]34O)O2 [ivermectin oral solution, ivermectin]
- Efficacy [1]: Less than 50%
- Efficacy against MP3 strain (MP3 strain of D. immitis; in vivo): incomplete efficacy
